From PubChem BioAssay AID248 (DTP/NCI, 2004)
Where “and” joins values, the source holds several entries; their conditions need not be identical. Equal values may be shown once. Inconclusive results and toxic doses are left out. Cut-off read from the data, not from the text of the source: active = T/C of 150% or more; inactive = T/C below 125%.

Tested on: L1210 leukemia ip in BDF1 mice, survival T/C
Experiment: NCI In Vivo Anticancer Drug Screen. Data for tumor model L1210 Leukemia (intraperitoneal) in B6D2F1 (BDF1) mice
Settings: endpoint: mean survival time, higher = longer survival
In short: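 Transplanted-tumor mice were given test agent; controls received vehicle only. Survival readings from the two groups were divided (treated over control).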

[1] = dose: 50.0 mg/kg/injection, schedule: Q01DX001 (ip), vehicle: Klucel (hydroxypropylcellulose) (HPC)
[2] = dose: 100.0 mg/kg/injection, schedule: Q01DX001 (ip), vehicle: Klucel (hydroxypropylcellulose) (HPC)
[3] = dose: 100.0 mg/kg/injection, schedule: Q04DX003 (ip), vehicle: Klucel (hydroxypropylcellulose) (HPC)
[4] = dose: 200.0 mg/kg/injection, schedule: Q01DX001 (ip), vehicle: Klucel (hydroxypropylcellulose) (HPC)
[5] = dose: 25.0 mg/kg/injection, schedule: Q04DX003 (ip), vehicle: saline with Tween-80
[6] = dose: 200.0 mg/kg/injection, schedule: Q04DX003 (ip), vehicle: Klucel (hydroxypropylcellulose) (HPC)
[7] = dose: 400.0 mg/kg/injection, schedule: Q04DX003 (ip), vehicle: Klucel (hydroxypropylcellulose) (HPC)
[8] = dose: 400.0 mg/kg/injection, schedule: Q01DX001 (ip), vehicle: Klucel (hydroxypropylcellulose) (HPC)

Measured: T/C

NNc1cc(NN)c2[nH]cnc2n1
inactive: dose: 25.0 mg/kg/injection, schedule: Q01DX001 (ip), vehicle: Klucel (hydroxypropylcellulose) (HPC) 100 % of control | dose: 25.0 mg/kg/injection, schedule: Q04DX003 (ip), vehicle: Klucel (hydroxypropylcellulose) (HPC) 102 % of control | [1] 93 % of control | dose: 50.0 mg/kg/injection, schedule: Q04DX003 (ip), vehicle: Klucel (hydroxypropylcellulose) (HPC) 105 % of control | [2] 100 % of control and 108 % of control | [3] 112 % of control

O=P(c1ccccc1)(c1ccccc1)N1CC1c1ccccc1 (configuration not stated)
inactive: dose: 75.0 mg/kg/injection, schedule: Q01DX001 (ip), vehicle: carboxymethylcellulose (CMC) 96 % of control | dose: 150.0 mg/kg/injection, schedule: Q01DX001 (ip), vehicle: carboxymethylcellulose (CMC) 95 % of control | dose: 300.0 mg/kg/injection, schedule: Q01DX001 (ip), vehicle: carboxymethylcellulose (CMC) 90 % of control

CCCC(=O)NNC(=O)CCC
inactive: dose: 100.0 mg/kg/injection, schedule: Q04DX003 (ip), vehicle: gum acacia 106 % of control | dose: 200.0 mg/kg/injection, schedule: Q04DX003 (ip), vehicle: gum acacia 107 % of control | dose: 400.0 mg/kg/injection, schedule: Q04DX003 (ip), vehicle: gum acacia 120 % of control

O=C(O)C(CCCCC1CCCCC1)CCC1CCCCC1 (configuration not stated)
inactive: dose: 100.0 mg/kg/injection, schedule: Q01DX001 (ip), vehicle: saline with Tween-80 97 % of control | dose: 200.0 mg/kg/injection, schedule: Q01DX001 (ip), vehicle: saline with Tween-80 99 % of control | dose: 400.0 mg/kg/injection, schedule: Q01DX001 (ip), vehicle: saline with Tween-80 94 % of control

CC(=O)Nc1ccc(S(=O)(=O)NC2CCCCC2)cc1
inactive: [1] 94 % of control | [2] 97 % of control | [4] 100 % of control

CCCOC(C)(C)CCC/C(C)=C/COc1ccc(CC)cc1
inactive: dose: 100.0 mg/kg/injection, schedule: Q04DX002 (ip), vehicle: saline with Tween-80 96 % of control | dose: 200.0 mg/kg/injection, schedule: Q04DX002 (ip), vehicle: saline with Tween-80 92 % of control | dose: 400.0 mg/kg/injection, schedule: Q04DX002 (ip), vehicle: saline with Tween-80 105 % of control

O=S1(=O)CCCC1=C(c1ccccc1)c1ccccc1
inactive: dose: 100.0 mg/kg/injection, schedule: Q01DX009 (ip), vehicle: saline with Tween-80 105 % of control | dose: 200.0 mg/kg/injection, schedule: Q01DX009 (ip), vehicle: saline with Tween-80 100 % of control | dose: 400.0 mg/kg/injection, schedule: Q01DX009 (ip), vehicle: saline with Tween-80 107 % of control

CC(=O)N(C)C1=C(Sc2ccc([N+](=O)[O-])cc2)C(=O)c2ccccc2C1=O
inactive: dose: 50.0 mg/kg/injection, schedule: Q04DX003 (ip), vehicle: other 92 % of control | dose: 100.0 mg/kg/injection, schedule: Q01DX001 (ip), vehicle: other 97 % of control | dose: 100.0 mg/kg/injection, schedule: Q04DX003 (ip), vehicle: other 97 % of control | dose: 200.0 mg/kg/injection, schedule: Q01DX001 (ip), vehicle: other 96 % of control | dose: 200.0 mg/kg/injection, schedule: Q04DX003 (ip), vehicle: other 86 % of control | dose: 400.0 mg/kg/injection, schedule: Q01DX001 (ip), vehicle: other 92 % of control

COc1ccc(C=NCCN=Cc2ccc(OC)cc2OC)c(OC)c1
inactive: dose: 6.25 mg/kg/injection, schedule: Q01DX009 (ip), vehicle: saline with Tween-80 97 % of control | dose: 6.25 mg/kg/injection, schedule: Q04DX003 (ip), vehicle: saline with Tween-80 98 % of control | dose: 12.5 mg/kg/injection, schedule: Q01DX009 (ip), vehicle: saline with Tween-80 87 % of control | dose: 12.5 mg/kg/injection, schedule: Q04DX003 (ip), vehicle: saline with Tween-80 91 % of control | dose: 25.0 mg/kg/injection, schedule: Q01DX009 (ip), vehicle: saline with Tween-80 87 % of control | [5] 95 % of control

CCCN=Cc1cc(Cl)ccc1O.CCCN=Cc1cc(Cl)ccc1O.[Ni]
inactive: dose: 100.0 mg/kg/injection, schedule: Q01DX008 (sc), vehicle: olive oil, sesame oil, peanut oil 104 % of control | dose: 200.0 mg/kg/injection, schedule: Q01DX008 (sc), vehicle: olive oil, sesame oil, peanut oil 98 % of control | dose: 400.0 mg/kg/injection, schedule: Q01DX008 (sc), vehicle: olive oil, sesame oil, peanut oil 86 % of control

COc1cc(C)c2c([N+](=O)[O-])cc([N+](=O)[O-])c(OC)c2n1
inactive: dose: 75.0 mg/kg/injection, schedule: Q01DX009 (ip), vehicle: Klucel (hydroxypropylcellulose) (HPC) 98 % of control | [3] 106 % of control | dose: 150.0 mg/kg/injection, schedule: Q01DX009 (ip), vehicle: Klucel (hydroxypropylcellulose) (HPC) 101 % of control | [6] 93 % of control | dose: 300.0 mg/kg/injection, schedule: Q01DX009 (ip), vehicle: Klucel (hydroxypropylcellulose) (HPC) 95 % of control | [7] 103 % of control

CCC1(O)CC2CN(CCc3c([nH]c4ccccc34)C(C(=O)OC)(c3cc4c(cc3OC)N(C)C3C(O)(C(N)=O)C(O)C5(CC)C=CCN6CCC43C65)C2)C1 (configuration not stated) (tested in a mixture with another compound)
inactive: dose: 0.43 mg/kg/injection, schedule: Q01DX009 (ip), vehicle: saline 124 % of control | dose: 1.2 mg/kg/injection, schedule: Q01DX009 (ip), vehicle: saline 97 % of control | dose: 648.0 micrograms/kg/injection, schedule: Q04DX003 (ip), vehicle: saline 123 % of control | dose: 5000.0 micrograms/kg/injection, schedule: Q04DX003 (ip), vehicle: saline 111 % of control

C=CC[As](=O)(O)O
inactive: [5] 98 % of control | dose: 50.0 mg/kg/injection, schedule: Q04DX003 (ip), vehicle: saline with Tween-80 104 % of control | dose: 100.0 mg/kg/injection, schedule: Q04DX003 (ip), vehicle: saline with Tween-80 92 % of control

C=CCOc1c(Cl)cc(Cl)cc1Cl
inactive: dose: 100.0 mg/kg/injection, schedule: Q01DX001 (ip), vehicle: saline 100 % of control | dose: 200.0 mg/kg/injection, schedule: Q01DX001 (ip), vehicle: saline 100 % of control | dose: 400.0 mg/kg/injection, schedule: Q01DX001 (ip), vehicle: saline 100 % of control

O=C(Cc1ccccc1)Nc1ccc[n+](Cc2ccc(S(=O)(=O)F)cc2)c1
inactive: dose: 100.0 mg/kg/injection, schedule: Q04DX003 (ip), vehicle: saline 108 % of control and 122 % of control | dose: 200.0 mg/kg/injection, schedule: Q04DX003 (ip), vehicle: saline 113 % of control and 114 % of control

Cc1ccc(S(=O)(=O)N(C)c2cc(Cl)c(C#N)c(Cl)c2)cc1
inactive: [2] 96 % of control | [3] 102 % of control | [4] 96 % of control | [6] 93 % of control and 92 % of control | [8] 89 % of control | [7] 97 % of control and 91 % of control

CCOC(=O)C1(C(=O)OCC)C=C(CC)C(=O)OC1
inactive: dose: 50.0 mg/kg/injection, schedule: Q01DX001 (ip), vehicle: carboxymethylcellulose (CMC) 111 % of control | dose: 100.0 mg/kg/injection, schedule: Q01DX001 (ip), vehicle: carboxymethylcellulose (CMC) 100 % of control | dose: 200.0 mg/kg/injection, schedule: Q01DX001 (ip), vehicle: carboxymethylcellulose (CMC) 113 % of control | dose: 400.0 mg/kg/injection, schedule: Q01DX001 (ip), vehicle: carboxymethylcellulose (CMC) 105 % of control

C=C(C)C1(CCCC)C(=O)NC(=S)NC1=O
inactive: dose: 75.0 mg/kg/injection, schedule: Q01DX001 (ip), vehicle: saline 102 % of control | dose: 150.0 mg/kg/injection, schedule: Q01DX001 (ip), vehicle: saline 95 % of control

CCCCCCCC(=O)N1C(=O)CCC1C(=O)NCC(=O)NCC(=O)OCc1ccccc1 (configuration not stated)
inactive: [2] 95 % of control | [4] 98 % of control | [8] 91 % of control
